Measured values from patent EP4273147A1, “SUBSTITUTED SPIROLACTAMS, SALTS THEREOF AND THEIR USE AS HERBICIDALLY ACTIVE SUBSTANCES” (Bayer Aktiengesellschaft, priority 2022, dated 2023).

Assays:
[1] = tested on: MATIN; experiment: Herbicidal pre-emergence action (Table A4); format: in vivo, Matricaria inodora; settings: visual grading after ca. 3 weeks
Outline: (§1)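 Sandy loam filled the pots; weed seeds went in as paired sowings of one grass-type and one broadleaf species, then were covered with soil.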

[2] = tested on: SETVI; experiment: Herbicidal pre-emergence action (Table A5); format: in vivo, Setaria viridis; settings: visual grading after ca. 3 weeks
Outline: as §1

[3] = tested on: VERPE; experiment: Herbicidal post-emergence action (Table B10); format: in vivo, Veronica persica; settings: application rate 1280 g/ha
Method: (§2) Seeds of mono- and dicotyledonous weed plants were placed in plastic pots in sandy loam soil (doubly sown with in each case one species of mono- or dicotyledonous weed plants per pot), covered with soil and cultivated in a greenhouse under controlled growth conditions. 2 to 3 weeks after sowing, the test plants were treated at the one-leaf stage. […] After the test plants had been kept in the greenhouse under optimum growth conditions for about 3 weeks, the activity of the preparations was rated visually in comparison to untreated controls. For example, 100% activity = the plants have died, 0% activity = like control plants.

[4] = tested on: STEME; experiment: Herbicidal pre-emergence action (Table A6); format: in vivo, Stellaria media; settings: visual grading after ca. 3 weeks
Outline: as §1

[5] = tested on: ABUTH; experiment: Herbicidal pre-emergence action (Table A1); format: in vivo, Abutilon theophrasti; settings: application rate 1280 g/ha; visual grading after ca. 3 weeks vs untreated controls (100% = plants have died off, 0% = as control plants)
Text: (§3) Seeds of mono- and dicotyledonous weed plants were sown in plastic pots (double sowings with one species of mono- and one species of dicotyledonous weed plants per pot), in sandy loam, and covered with soil.

[6] = tested on: MATIN; experiment: Herbicidal post-emergence action (Table B6); format: in vivo, Matricaria inodora; settings: application rate 1280 g/ha; rated visually after about 3 weeks
Method: as §2

[7] = tested on: ALOMY; experiment: Herbicidal pre-emergence action (Table A9); format: in vivo, Alopecurus myosuroides; settings: visual grading after ca. 3 weeks
Outline: as §1

[8] = tested on: ABUTH; experiment: Herbicidal post-emergence action (Table B1); format: in vivo, Abutilon theophrasti; settings: treated at one-leaf stage, rated visually after about 3 weeks vs untreated controls (100% = plants have died, 0% = like control plants)
Method: as §2

[9] = tested on: POAAN; experiment: Herbicidal pre-emergence action (Table A7); format: in vivo, Poa annua; settings: visual grading after ca. 3 weeks
Outline: as §1

[10] = tested on: POAAN; experiment: Herbicidal post-emergence action (Table B7); format: in vivo, Poa annua; settings: application rate 1280 g/ha
Outline: (§4)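 Percent herbicidal activity scored visually versus untreated controls, with 100% meaning dead plants. Scoring took place ~3 weeks after post-emergence treatment of one-leaf-stage weeds grown in sandy loam pots in a greenhouse.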

[11] = tested on: VERPE; experiment: Herbicidal pre-emergence action (Table A11); format: in vivo, Veronica persica; settings: application rate 1280 g/ha; visual grading after ca. 3 weeks
Outline: as §1

[12] = tested on: LOLRI; experiment: Herbicidal pre-emergence action (Table A3); format: in vivo, Lolium rigidum; settings: visual grading after ca. 3 weeks
Outline: as §1

[13] = tested on: ECHCG; experiment: Herbicidal pre-emergence action (Table A2); format: in vivo, Echinochloa crus-galli; settings: visual grading after ca. 3 weeks
Outline: as §1

[14] = tested on: ECHCG; experiment: Herbicidal post-emergence action (Table B3); format: in vivo, Echinochloa crus-galli; settings: rated visually after about 3 weeks
Outline: as §4

[15] = tested on: DIGSA; experiment: Herbicidal pre-emergence action (Table A12); format: in vivo, Digitaria sanguinalis; settings: application rate 320 g/ha; visual grading after ca. 3 weeks
Outline: as §1

[16] = tested on: KCHSC; experiment: Herbicidal pre-emergence action (Table A10); format: in vivo, Kochia scoparia; settings: application rate 1280 g/ha; visual grading after ca. 3 weeks
Outline: as §1

[17] = tested on: ORYZA; experiment: Pre-emergence effects on crop plants (Table D3); settings: crop plant; application rate 320 g/ha; visual grading after ca. 3 weeks
[18] = tested on: ZEAMX; experiment: Post-emergence effects on crop plants (Table F1); format: in vivo, Zea mays; settings: application rate 320 g/ha, crop plant ZEAMX
Text: (§5) 2 to 3 weeks after sowing, the test plants were sprayed in the single-leaf stage.

[19] = tested on: GLXMA; experiment: Pre-emergence effects on crop plants (Table D4); format: in vivo, Glycine max; settings: crop plant; application rate 320 g/ha; visual grading after ca. 3 weeks
[20] = tested on: SETVI; experiment: Herbicidal pre-emergence action, section C (Table C10); format: in vivo, Setaria viridis; settings: application rate 320 g/ha; visual grading after ca. 3 weeks
[21] = tested on: BRSNW; experiment: Pre-emergence effects on crop plants (Table D5); format: in vivo, Brassica napus; settings: crop plant; application rate 320 g/ha; visual grading after ca. 3 weeks
[22] = tested on: ZEAMX; experiment: Pre-emergence effects on crop plants (Table D1); format: in vivo, Zea mays; settings: crop plant, visual grading after ca. 3 weeks
[23] = tested on: ORYZA; experiment: Post-emergence effects on crop plants (Table F3); format: in vivo, Oryza sativa; settings: application rate 320 g/ha, crop plant ORYZA
Text: as §5

[24] = tested on: VIOTR; experiment: Herbicidal post-emergence action, section E (Table E10); format: in vivo, Viola tricolor; settings: application rate 320 g/ha; assessed visually after ca. 3 weeks
Text: as §5

[25] = tested on: GLXMA; experiment: Post-emergence effects on crop plants (Table F4); format: in vivo, Glycine max; settings: crop plant GLXMA
Text: as §5

[26] = tested on: DIGSA; experiment: Herbicidal pre-emergence action, section C (Table C5); format: in vivo, Digitaria sanguinalis; settings: application rate 320 g/ha; visual grading after ca. 3 weeks
[27] = tested on: BRSNW; experiment: Post-emergence effects on crop plants (Table F5); format: in vivo, Brassica napus; settings: application rate 320 g/ha, crop plant BRSNW
Text: as §5

[28] = tested on: TRZAS; experiment: Pre-emergence effects on crop plants (Table D2); format: in vivo, Triticum aestivum; settings: crop plant; application rate 320 g/ha; visual grading after ca. 3 weeks
[29] = tested on: TRZAS; experiment: Post-emergence effects on crop plants (Table F2); format: in vivo, Triticum aestivum; settings: application rate 320 g/ha, crop plant TRZAS
Text: as §5

[30] = tested on: SETVI; experiment: Herbicidal post-emergence action (Table B8); format: in vivo, Setaria viridis; settings: application rate 1280 g/ha
Outline: as §4

[31] = tested on: AMARE; experiment: Herbicidal pre-emergence action (Table A8); format: in vivo, Amaranthus retroflexus; settings: visual grading after ca. 3 weeks vs untreated controls (100% = plants have died off, 0% = as control plants)
Text: as §3

[32] = tested on: AMARE; experiment: Herbicidal post-emergence action (Table B11); format: in vivo, Amaranthus retroflexus; settings: application rate 1280 g/ha
Method: as §2

`O=C1N(Cc2ccccc2F)CCCC12CCCN(Cc1c(F)cccc1F)C2=O` (racemic) [I-031] was tested, and the “pre-emergence activity against MATIN” value ([1]; application rate 320 g/ha) was 90%, the “pre-emergence activity against SETVI” value ([2]; application rate 320 g/ha) was 100% and the “post-emergence activity against VERPE” value [3] was 90%. The “pre-emergence activity against STEME” value ([4]; application rate 320 g/ha) was 90%, the “pre-emergence activity against ABUTH” value [5] was 90% and the “post-emergence activity against MATIN” value [6] was 90%. For the same molecule, the “pre-emergence activity against ALOMY” value ([7]; application rate 1280 g/ha) was 90%, the “post-emergence activity against ABUTH” value ([8]; application rate 1280 g/ha) was 90% and the “pre-emergence activity against POAAN” value ([9]; application rate 320 g/ha) was 100%. For the same molecule, the “post-emergence activity against POAAN” value [10] was 90%, the “pre-emergence activity against VERPE” value [11] was 90% and the “pre-emergence activity against LOLRI” value ([12]; application rate 320 g/ha) was 100%. For the same molecule, the “pre-emergence activity against ECHCG” value ([13]; application rate 320 g/ha) was 100% and the “post-emergence activity against ECHCG” value ([14]; application rate 320 g/ha) was 90%.
With `Cc1ccccc1CN1CCC2(CCCN(Cc3c(F)cccc3F)C2=O)C1=O` (racemic) [I-058] the “pre-emergence activity against MATIN” value ([1]; application rate 1280 g/ha) was 90%, the “pre-emergence activity against SETVI” value ([2]; application rate 1280 g/ha) was 90% and the “pre-emergence activity against STEME” value ([4]; application rate 320 g/ha) was 90%. For the same molecule, the “pre-emergence activity against DIGSA” value [15] was 90%, the “post-emergence activity against ABUTH” value ([8]; application rate 1280 g/ha) was 90% and the “pre-emergence activity against POAAN” value ([9]; application rate 320 g/ha) was 100%. For the same molecule, the “post-emergence activity against POAAN” value [10] was 90%, the “pre-emergence activity against LOLRI” value ([12]; application rate 1280 g/ha) was 90% and the “pre-emergence activity against ECHCG” value ([13]; application rate 1280 g/ha) was 100%. For the same molecule, the “post-emergence activity against ECHCG” value ([14]; application rate 1280 g/ha) was 90% and the “pre-emergence activity against KCHSC” value [16] was 90%.
For `O=C1N(Cc2c(F)cccc2Cl)CCCC12CCCN(Cc1c(F)cccc1Cl)C2=O` (racemic) [I-063], the “pre-emergence activity against ORYZA” value [17] was 0%, the “post-emergence activity against ZEAMX” value [18] was 10% and the “pre-emergence activity against GLXMA” value [19] was 0%. For the same molecule, the “pre-emergence activity against SETVI” value ([2]; application rate 320 g/ha) was 100%, the “pre-emergence activity against STEME” value ([4]; application rate 320 g/ha) was 100% and the “pre-emergence activity against SETVI” value [20] was 100%. For the same molecule, the “pre-emergence activity against BRSNW” value [21] was 10%, the “pre-emergence activity against ZEAMX” value ([22]; application rate 320 g/ha) was 0% and the “post-emergence activity against ORYZA” value [23] was 0%. For the same molecule, the “post-emergence activity against VIOTR” value [24] was 80%, the “pre-emergence activity against POAAN” value ([9]; application rate 320 g/ha) was 100% and the “post-emergence activity against GLXMA” value ([25]; application rate 320 g/ha) was 10%. The “pre-emergence activity against ECHCG” value ([13]; application rate 1280 g/ha) was 100%, the “pre-emergence activity against DIGSA” value [26] was 100% and the “post-emergence activity against BRSNW” value [27] was 10%. For the same molecule, the “pre-emergence activity against TRZAS” value [28] was 0% and the “post-emergence activity against TRZAS” value [29] was 0%.
With `COc1ccccc1CN1CCCC2(CCCN(Cc3ccccc3OC)C2=O)C1=O` (racemic) [I-071] the “post-emergence activity against ABUTH” value ([8]; application rate 320 g/ha) was 90%, the “pre-emergence activity against POAAN” value ([9]; application rate 320 g/ha) was 100% and the “pre-emergence activity against ECHCG” value ([13]; application rate 1280 g/ha) was 100%.
For `O=C1N(Cc2c(F)cc(F)cc2F)CCCC12CCCN(Cc1c(F)cc(F)cc1F)C2=O` (racemic) [I-198, 2,8-bis[(2,4,6-trifluorophenyl)methyl]-2,8-diazaspiro[5.5]undecane-1,7-dione], the “post-emergence activity against SETVI” value [30] was 90%, the “pre-emergence activity against MATIN” value ([1]; application rate 1280 g/ha) was 90% and the “pre-emergence activity against SETVI” value ([2]; application rate 320 g/ha) was 100%. The “pre-emergence activity against STEME” value ([4]; application rate 320 g/ha) was 90%, the “pre-emergence activity against ALOMY” value ([7]; application rate 320 g/ha) was 90% and the “pre-emergence activity against DIGSA” value [15] was 100%. The pest or weed control at 320 g/ha ([9]; Poa annua, pre-emergence, 504 h, application rate 320 g/ha, read-out: pre-emergence activity against POAAN) was 100%, the “post-emergence activity against POAAN” value [10] was 90% and the “pre-emergence activity against VERPE” value [11] was 90%. For the same molecule, the “pre-emergence activity against AMARE” value ([31]; application rate 320 g/ha) was 90%, the pest or weed control at 320 g/ha ([12]; Lolium rigidum, pre-emergence, 504 h, application rate 320 g/ha, read-out: pre-emergence activity against LOLRI) was 100% and the “post-emergence activity against AMARE” value [32] was 90%. The “pre-emergence activity against ECHCG” value ([13]; application rate 320 g/ha) was 100%, the pest or weed control at 1280 g/ha ([14]; Echinochloa crus-galli, post-emergence, 504 h, application rate 1280 g/ha, read-out: post-emergence activity against ECHCG) was 90% and the “pre-emergence activity against KCHSC” value [16] was 90%.
In the case of `CC(c1ccccc1F)N1CCCC2(CCCN(C(C)c3ccccc3F)C2=O)C1=O` (stereo not drawn) [I-060], the “post-emergence activity against ZEAMX” value [18] is reported as 10%, the “pre-emergence activity against GLXMA” value [19] is reported as 10% and the “pre-emergence activity against SETVI” value ([2]; application rate 1280 g/ha) is reported as 100%. The “pre-emergence activity against STEME” value ([4]; application rate 1280 g/ha) was 90%, the “pre-emergence activity against SETVI” value [20] was 100% and the “pre-emergence activity against BRSNW” value [21] was 10%. The “pre-emergence activity against ZEAMX” value ([22]; application rate 80 g/ha) was 0%, the “post-emergence activity against ORYZA” value [23] was 0% and the “post-emergence activity against VIOTR” value [24] was 90%. For the same molecule, the “pre-emergence activity against POAAN” value ([9]; application rate 1280 g/ha) was 100%, the “pre-emergence activity against VERPE” value [11] was 90% and the “pre-emergence activity against AMARE” value ([31]; application rate 1280 g/ha) was 90%. The “post-emergence activity against GLXMA” value ([25]; application rate 80 g/ha) was 0%, the “pre-emergence activity against ECHCG” value ([13]; application rate 320 g/ha) was 90% and the “pre-emergence activity against DIGSA” value [26] was 100%. For the same molecule, the “post-emergence activity against BRSNW” value [27] was 0%, the “pre-emergence activity against TRZAS” value [28] was 10% and the “post-emergence activity against TRZAS” value [29] was 0%.
